Values of other authors in patent publication US6793912B2, “Treatment of cancers by inhalation of stable platinum-containing formulations” (Transave Inc., priority 2001, dated 2004).

Conditions: administered by inhalation vs intravenously

N.N.[Cl][Pt][Cl] [Cisplatin, cis-diamminedichloroplatinum(II)]
dose required to elicit a response in animal models, more effective in the lung than intravenously: 10-100 fold
